The text below walks through data of publication PMC12081876, “Identification of PTGR2 inhibitors as a new therapeutic strategy for diabetes and obesity” (EMBO Molecular Medicine, 2025).

Data set [1] addresses T1, murine PPARγ (mPPARγ) (Mus musculus, UniProt P37238).
T1 construct: host or cells: HEK293T
Put plainly: LC-MS/MS of covalent binding to mPPARγ overexpressed in HEK293T cells. To be noted: HEK293T cells overexpressing mPPARγ. The protocol: HEK293T cells were transfected with murin PPARγ (mPPARγ) and mPPARγ C313A plasmids for immunoprecipitation, which are Myc-DDK-tagged (OriGene, USA). […] According to the manufacturer’s protocol, proteins were immunoprecipitated using Anti-FLAG® M2 Magnetic Beads (2.5 mg/ml; cat. no. F1804, Sigma-Aldrich). Subsequently, the eluted proteins were separated by SDS-PAGE and subjected to immunoblot analysis. Following separation by SDS-PAGE, proteins were stained with Coomassie blue and SYPRO-Ruby stain. The protein bands of interest were cut out for in-gel tryptic digestion followed by C18 Zip-Tip clean-up (Millipore, USA). For proteomic shotgun identifications, nanoLC-nanoESI-MS/MS analysis was performed on a nanoAcquity system (Waters, USA) connected to the LTQ Orbitrap Velos hybrid MS (Thermo Electron, USA) equipped with a PicoView nanospray interface (New Objective, USA). Samples were loaded onto a C18 BEH column (75 μm × 25 cm length, 130 Å, 1.7 μm particle size) (Waters, USA) and separated by a segmented gradient form in 60 min from 5% to 40% acetonitrile (with 0.1% formic acid) at a constant flow rate of 300 nL/min with a column temperature of 35 °C. The mass spectrometer was operated in the data-dependent mode. […] Protein identification and modification were analyzed using Mascot Daemon (Matrix Science Inc., Chicago). […]

Data set [2] deals with T2, mPPARγ LBD C313A mutant (Mus musculus, UniProt P37238, C313A).
T2 construct: mPPARγ LBD C313A mutant
Put plainly: Native mass spectrometry ligand binding, mPPARγ LBD C313A. Details: species or system murine. On the procedure: Wide-type mPPARγ ligand binding domain (LBD), mPPARγ LBD C313A mutant, and mPPARγ LBD H351A mutant were mixed together in a 1:1:1 molar ratio and then incubated with 15-keto-PEG2 or pioglitazone in a 1:10 molar ratio for 5 min at room temperature, respectively. The protein mixture was buffer-exchanged into 500 mM ammonium acetate buffer pH 7.5 using 7 K Zeba™ Spin Desalting Column (cat. no, 89877, Thermo) and immediately introduced into a modified Q-Exactive mass spectrometer (Thermo). The sets of optimized parameters were applied to analyze the ligand binding, including the higher-energy collisional dissociation (HCD) energy of 20 V; spray voltage, 1.1 kV; capillary temperature, 200 °C; S-lens RF level, 200; and resolution, 12,500 at m/z 400. Spectra were acquired and processed manually using Thermo Xcalibur Qual Browser (version 4.4.16.14). The relative percentage of compound-bound forms was quantified by the UniDec software and the degree of effector coupling was calculated by normalizing the relative percentage of bound forms to the sum of the percentage of unbound and bound forms.

The target of data set [3] is hPTGR2 (Homo sapiens, UniProt Q8N8N7). The data set is described as follows: Conversion of 15-keto-PGE2 by recombinant human PTGR2 protein. It is filed as biochemical. Set-up: made in house. To be noted: incubated with recombinant human PTGR2 protein.
A short description of data set [4]: Pharmacokinetic study in male ICR mice. The conditions noted are these: plasma. It is filed as in vivo, mouse. On the procedure:
Male ICR mice weighing 25–30 g each were obtained from BioLASCO, Taiwan Co., Ltd., Ilan, Taiwan for pharmacokinetic study. Briefly, a single dose of BRRPT245 was given intravenously at 2 mg/kg or oral gavage at 10 mg/kg to the mice. Blood samples were taken at 0 (immediately before dosing), 2, 5 (iv only), 15 and 30 min and at 1, 2, 4, 6, 8, 16, and 24 h after administration. The T1/2 (half-life), Cl (clearance), Vss (steady-state volume of distribution), AUC (area under curve), Cmax (maximum plasma concentration), Tmax (time taken to reach Cmax), and F(bioavailability%) were calculated according to the published formula (Urso et al, [2002]).
The HPLC system consisted of an Agilent 1200 series LC System with BinPump (Waldbronn, Germany) and an Agilent Eclipse XDB C8 (3.0 × 150 mm, 5 µm) interfaced to a Sciex API 4000 tandem mass spectrometer. Mobile phase consisted of 10 mM ammonium acetate containing 0.1% of formic acid (Solvent A) and acetonitrile (Solvent B). For determination of BPTPT0245, the following stepwise gradient system was used: 85% A (0–0.5 min), 85% A to 15% A (0.6–3.0 min), 5% A (3.1–5.0 min). Total running time was 5 min. The retention times of BPRPT0245 and BPR0L187 (internal standard) (IS) were 2.21 and 2.42 min, respectively. Data acquisition was via selected ion monitoring (SIM). The collision energy was +37 V for the analyte and +38.5 V for IS, respectively. The ions monitored for BPRPT0245 were m/z 447/189 and m/z 357/195, respectively. […] Total running time was 6 min. […] Data acquisition was via SIM.
To prepare the BPRPT0245 plasma samples, 50 µL of the plasma sample mixed with 100 µL acetonitrile containing […] of BPR0L187. The mixture was vortexed for 30 s and then centrifuged at 15,000 rpm for 20 min in an Eppendorf Model 5417c centrifuge at room temperature. An aliquot (5 µL) of the mixture was then injected onto to LC-MS/MS.

T2 sequence (P37238 238-503 C313A limits assumed): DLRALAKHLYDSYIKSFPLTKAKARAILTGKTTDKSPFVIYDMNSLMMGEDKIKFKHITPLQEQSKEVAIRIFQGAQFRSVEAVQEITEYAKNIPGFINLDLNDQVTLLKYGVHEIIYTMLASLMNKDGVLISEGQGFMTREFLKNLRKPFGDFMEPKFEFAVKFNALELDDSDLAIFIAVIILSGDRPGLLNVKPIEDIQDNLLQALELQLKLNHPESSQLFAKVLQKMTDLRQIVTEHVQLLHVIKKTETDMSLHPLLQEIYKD
hPTGR2, sequence (Q8N8N7 whole entry): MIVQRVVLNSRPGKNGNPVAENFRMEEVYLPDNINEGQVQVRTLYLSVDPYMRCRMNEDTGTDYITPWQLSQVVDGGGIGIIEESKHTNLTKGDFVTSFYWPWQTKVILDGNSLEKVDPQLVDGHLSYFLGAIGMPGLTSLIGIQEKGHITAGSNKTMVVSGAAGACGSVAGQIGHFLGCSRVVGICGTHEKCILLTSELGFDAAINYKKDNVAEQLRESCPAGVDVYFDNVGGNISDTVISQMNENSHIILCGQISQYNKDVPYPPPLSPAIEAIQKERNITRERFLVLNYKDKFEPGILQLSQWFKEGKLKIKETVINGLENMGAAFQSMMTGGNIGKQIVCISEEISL
T1 sequence (P37238 whole entry): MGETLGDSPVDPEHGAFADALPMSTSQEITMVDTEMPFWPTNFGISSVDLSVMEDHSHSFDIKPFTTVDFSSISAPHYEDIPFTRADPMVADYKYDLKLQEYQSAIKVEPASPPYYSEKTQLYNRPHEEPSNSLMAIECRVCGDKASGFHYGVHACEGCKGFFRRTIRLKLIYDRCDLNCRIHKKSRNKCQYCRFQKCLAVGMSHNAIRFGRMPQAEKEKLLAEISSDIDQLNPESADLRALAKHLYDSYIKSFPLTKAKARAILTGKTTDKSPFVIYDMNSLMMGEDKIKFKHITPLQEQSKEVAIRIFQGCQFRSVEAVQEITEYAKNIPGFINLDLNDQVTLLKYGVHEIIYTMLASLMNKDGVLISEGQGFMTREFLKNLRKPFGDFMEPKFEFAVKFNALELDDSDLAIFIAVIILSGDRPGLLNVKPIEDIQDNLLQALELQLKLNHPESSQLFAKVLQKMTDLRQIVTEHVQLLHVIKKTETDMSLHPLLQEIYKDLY

For `CCCCCC(=O)/C=C/[C@H]1[C@H](O)CC(=O)[C@@H]1C/C=C\CCCC(=O)O` [15-keto-PGE2, 15-keto-prostaglandin E2], the “covalent binding site on mPPARγ (LC-MS/MS)” value in data set [1] was “covalently binds mPPARγ at the Cys313 residue”. Also, in data set [2], the “effect of C313A mutation on binding (native MS)” value is on record as “almost completely abolished 15-keto-PGE2 binding”. Besides, the “15-keto-PGE2 converted into 13,14-dihydro-15-keto-PGE2” value in data set [3] is 99.83%.

In data set [4] (Mouse IV, dose 2 mg/kg), `Cc1[nH]c2nc(C(C)N3CCN(c4ccccc4)CC3)nn2c(=O)c1Cc1ccc(F)cc1` (stereo not drawn) [BPRPT0245] had an AUC(0-inf) of 480 ng·h/mL, a clearance of 79.5 mL/min/kg and a half-life of 2 h. The Vd in data set [4] (Mouse IV, dose 2 mg/kg, read-out: Vss) was 5 L/kg. Moreover, in data set [4] (Mouse PO, dose 10 mg/kg), the AUC(0-inf) came out at 725 ng·h/mL, the Cmax was 398 ng/mL, the Tmax was 0.4 h and the half-life was 2.5 h. For the same compound, in data set [4] (Mouse PO, dose 10 mg/kg, read-out: F(%) bioavailability), the bioavailability amounted to 30.2%.

In general, AUC(0-inf) refers to total exposure, with the tail of the curve extrapolated. A high value points to high exposure. For orientation: clearance means a measure of how efficiently the substance is removed, as volume per time. The low end stands for a low capacity for elimination, the high end for a high capacity for elimination. What is called half-life is how long it takes for the measured level to halve. A higher half-life goes with slow loss. As a reminder, the Cmax is the peak of the concentration-time curve. Broadly, the Tmax is the time at which the peak concentration occurs. By bioavailability is commonly meant the share of a dose that reaches the circulation, judged against a reference dose that is usually intravenous.
